From US9840500B2, “Compounds as dual inhibitors of histone methyltransferases and DNA methyltransferases” (FUNDACIÓN PARA LA INVESTIGACIÓN MÉDICA APLICADA, priority 2014, dated 2017) come the findings set out here.

One test has as its system Hep3B. As to the kind of experiment: Cell proliferation assay, Hep3B (HCC). It counts as cell-based. The following applies: Homo sapiens, 48 hours of treatment, Table 3. Here is the method:
(§1) Cell proliferation was analyzed after 48 hours of in vitro treatment using the CellTiter 96 Aqueous One Solution Cell Proliferation Assay (Promega, Madison, Wis.). This is a colorimetric method for determining the number of viable cells in proliferation.
(§2) For the assay, suspension cells were cultured by triplicate at a density of 1×10^6 cells/ml in 96-well plates (100.000 cells/well, 100 μl/well), except for OCILY-3 and OCILY-10 cell lines which were cultured at a density of 0.5×10^6 cells/ml (50.000 cells/well, 100 μl/well) and for HepG2, Hep3B and PLC/PRF/5 cell ines which were cultured at a density of 3000 cells/well, 100 μl/well). Adherent cells were obtained from 80-90% confluent flasks and 100 μl of cells were seeded at a density of 5000 cells/well in 96-well plates by triplicate. Before addition of the compounds, adherent cells were allowed to attach to the bottom of the wells for 12 hours. In all cases, only the 60 inner wells were used to avoid any border effects.
(§3) After 48 hours of treatment, plates with suspension cells were centrifuged at 800 g for 10 minutes and medium was removed. The plates with adherent cells were flicked to remove medium. Then, cells were incubated with 100 ul/well of medium and 20 ul/well of CellTiter 96 Aqueous One Solution reagent. After 1-3 hours of incubation at 37° C., absorbance was measured at 490 nm in a 96-well plate reader. The background absorbance was measured in wells with only cell line medium and solution reagent. Data was calculated as a percentage of total absorbance of treated cell/absorbance of non treated cells.

In the next test the target is T1, human G9a enzyme (Homo sapiens, UniProt Q96KQ7).
T1 sequence (Q96KQ7 1-1210): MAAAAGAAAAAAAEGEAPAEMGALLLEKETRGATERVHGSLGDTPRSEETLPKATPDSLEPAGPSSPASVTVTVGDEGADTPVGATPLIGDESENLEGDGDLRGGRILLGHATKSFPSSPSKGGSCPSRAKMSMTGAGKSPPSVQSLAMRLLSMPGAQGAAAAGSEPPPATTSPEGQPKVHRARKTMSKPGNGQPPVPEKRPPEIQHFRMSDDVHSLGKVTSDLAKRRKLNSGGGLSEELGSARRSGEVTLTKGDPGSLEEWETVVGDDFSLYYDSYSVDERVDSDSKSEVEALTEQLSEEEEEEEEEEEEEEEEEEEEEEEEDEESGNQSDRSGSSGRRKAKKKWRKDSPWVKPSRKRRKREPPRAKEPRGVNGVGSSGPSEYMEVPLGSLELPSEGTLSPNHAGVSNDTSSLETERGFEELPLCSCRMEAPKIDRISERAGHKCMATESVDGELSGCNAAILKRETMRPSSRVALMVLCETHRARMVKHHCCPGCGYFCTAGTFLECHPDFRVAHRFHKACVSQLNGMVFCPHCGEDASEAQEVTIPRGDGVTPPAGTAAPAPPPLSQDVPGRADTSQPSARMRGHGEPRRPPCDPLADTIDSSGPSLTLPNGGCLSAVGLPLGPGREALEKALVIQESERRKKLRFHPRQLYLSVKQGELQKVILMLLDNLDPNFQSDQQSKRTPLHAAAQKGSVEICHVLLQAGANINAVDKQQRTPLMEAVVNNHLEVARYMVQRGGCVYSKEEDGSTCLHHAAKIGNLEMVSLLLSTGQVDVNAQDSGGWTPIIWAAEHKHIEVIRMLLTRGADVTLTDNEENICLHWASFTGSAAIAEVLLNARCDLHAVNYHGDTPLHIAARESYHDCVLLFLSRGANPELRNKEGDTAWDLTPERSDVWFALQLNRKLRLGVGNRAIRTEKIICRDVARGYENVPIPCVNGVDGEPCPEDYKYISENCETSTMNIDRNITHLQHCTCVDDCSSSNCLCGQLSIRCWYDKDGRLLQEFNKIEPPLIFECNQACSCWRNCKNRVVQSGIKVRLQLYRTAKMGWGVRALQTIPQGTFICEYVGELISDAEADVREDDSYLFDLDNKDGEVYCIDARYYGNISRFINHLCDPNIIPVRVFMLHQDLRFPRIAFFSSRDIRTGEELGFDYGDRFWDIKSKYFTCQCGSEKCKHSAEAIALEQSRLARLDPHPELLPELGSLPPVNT
Description: G9a enzyme activity assay (TR-FRET). It counts as biochemical. Here is the method:
The biochemical assay to measure G9a enzyme activity relies on time-resolved fluorescence energy transfer (TR-FRET) between europium cryptate (donor) and XL665 (acceptor). […] The human G9a enzyme expressed in a baculovirus infected Sf9 cell expression system was obtained from BPS Biosciences (Cat. #51001). […] Final percentage of DMSO was 0.5%. • 2 μl of 1 nM G9a enzyme diluted in assay buffer. […] Final concentration 150 nM. • Then, add 5 μl of streptavidin XL665 beads. Final concentration of 16 μM. • Read the plate after 1 hour of incubation at room temperature.
(§4) For each well, fluorescence was measured at 620 nm and 665 nm. A ratio (665 nm/620 nm) was then calculated in order to minimize medium interferences. Positive control was obtained in the presence of the vehicle of the compounds. Negative control was obtained in the absence of G9a enzyme activity. Calculated IC50 values were determined using GraphPrism using 4-parameters inhibition curve.
(In TR-FRET formats the signal depends on donor and acceptor labels being close together.)

The subject of a further test is CEMO-1. As to the kind of experiment: Cell proliferation assay, CEMO-1 (ALL). The following applies: Homo sapiens; 48 hours of treatment; Table 3. The format is cell-based, human. Here is the method: as §1, §2, §3
The next test has as its system HepG2. As to the kind of experiment: Cell proliferation assay, HepG2 (HCC). The format is cell-based. The following applies: Homo sapiens, 48 hours of treatment, Table 3. On the procedure: as §1, §2, §3
In the next test the test system is PLC/PRF/5. As to the kind of experiment: Cell proliferation assay, PLC/PRF/5 (HCC). The format is cell-based. The following applies: Homo sapiens, 48 hours of treatment, Table 3. Here is the method: as §1, §2, §3
The next test has as its target DNMT1 (Homo sapiens, UniProt P26358). Description: DNMT1 enzyme activity assay (TR-FRET, EPIgeneous methyltransferase assay). The format is biochemical. On the procedure:
The biochemical assay to measure DNMT1 enzyme activity relies on time-resolved fluorescence energy transfer (TR-FRET) between lumi4-Tb (donor) and d2 (acceptor) using the EPIgeneous methyltransferase assay (CisBio Cat#62SAHPEB). […] TR-FRET signal is inversely proportional to the concentration of SAH, product of DNMT1 enzyme activity, in the sample.
The human DNMT1 was obtained from Reaction Biology Corp. (Cat# DMT-21-124). […] Final percentage of DMSO was 0.5%. • 2 μl of 1 nM DNMT1 enzyme diluted in assay buffer.
as §4

The next test deals with OCI-Ly3. As to the kind of experiment: Cell proliferation assay, OCI-Ly3 (ABC-DLBCL). The format is cell-based. The following applies: Homo sapiens, 48 hours of treatment, Table 3. On the procedure: as §1, §2, §3

Where only a bound is given, the exact number is not on record here.

Sequence of DNMT1 (P26358 whole entry): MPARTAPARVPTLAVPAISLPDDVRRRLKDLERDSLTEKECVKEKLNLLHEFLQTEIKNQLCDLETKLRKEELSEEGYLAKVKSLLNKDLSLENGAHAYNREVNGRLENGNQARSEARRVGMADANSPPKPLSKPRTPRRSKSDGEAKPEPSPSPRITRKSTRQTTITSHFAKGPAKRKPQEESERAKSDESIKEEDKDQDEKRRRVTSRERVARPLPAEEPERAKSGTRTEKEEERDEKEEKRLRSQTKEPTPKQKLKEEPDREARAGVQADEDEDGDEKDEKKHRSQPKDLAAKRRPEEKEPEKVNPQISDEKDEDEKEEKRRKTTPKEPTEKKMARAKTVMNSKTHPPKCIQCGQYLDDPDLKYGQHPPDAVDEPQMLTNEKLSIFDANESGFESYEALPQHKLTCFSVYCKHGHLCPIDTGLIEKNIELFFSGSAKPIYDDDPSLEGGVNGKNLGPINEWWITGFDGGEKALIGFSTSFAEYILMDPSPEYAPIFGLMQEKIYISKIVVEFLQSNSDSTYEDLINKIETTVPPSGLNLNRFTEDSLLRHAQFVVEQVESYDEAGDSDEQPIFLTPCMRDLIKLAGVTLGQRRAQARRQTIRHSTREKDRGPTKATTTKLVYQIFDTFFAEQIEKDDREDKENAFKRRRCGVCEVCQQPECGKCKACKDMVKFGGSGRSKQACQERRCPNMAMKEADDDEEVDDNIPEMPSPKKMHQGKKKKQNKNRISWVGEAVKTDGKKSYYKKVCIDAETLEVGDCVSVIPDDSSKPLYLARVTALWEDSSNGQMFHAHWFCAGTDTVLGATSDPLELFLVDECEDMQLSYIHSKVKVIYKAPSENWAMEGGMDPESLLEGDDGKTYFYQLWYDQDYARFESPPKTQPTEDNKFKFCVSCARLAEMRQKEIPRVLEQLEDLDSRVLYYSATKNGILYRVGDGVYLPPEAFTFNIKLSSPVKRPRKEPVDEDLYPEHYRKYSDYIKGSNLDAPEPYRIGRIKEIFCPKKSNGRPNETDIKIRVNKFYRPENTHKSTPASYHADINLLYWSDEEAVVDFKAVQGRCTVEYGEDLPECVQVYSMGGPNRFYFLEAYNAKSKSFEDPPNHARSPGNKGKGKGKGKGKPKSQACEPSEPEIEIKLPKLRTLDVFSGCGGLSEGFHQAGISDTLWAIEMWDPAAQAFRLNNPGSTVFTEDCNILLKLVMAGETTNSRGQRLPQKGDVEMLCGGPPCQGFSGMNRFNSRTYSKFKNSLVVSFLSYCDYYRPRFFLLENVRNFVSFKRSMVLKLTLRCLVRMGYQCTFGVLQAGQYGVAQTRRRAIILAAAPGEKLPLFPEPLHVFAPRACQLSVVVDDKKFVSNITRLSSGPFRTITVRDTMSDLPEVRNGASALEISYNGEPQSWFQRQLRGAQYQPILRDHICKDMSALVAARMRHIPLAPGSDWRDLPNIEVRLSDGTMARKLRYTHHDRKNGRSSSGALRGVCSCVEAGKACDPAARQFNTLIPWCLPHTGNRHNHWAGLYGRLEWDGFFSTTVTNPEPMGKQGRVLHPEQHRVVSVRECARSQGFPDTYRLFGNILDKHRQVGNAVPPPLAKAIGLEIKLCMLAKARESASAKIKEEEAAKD

Usually GI50 stands for the concentration that inhibits growth by half. As usually defined, the IC50 is the concentration at which inhibition is half-maximal. `COc1cc2c(NC3CCN(C)CC3)cc(-c3ccc(C)o3)nc2cc1OC1CC2(CNC2)C1` [Compound 16-01, 7-(2-azaspiro[3.3]heptan-6-yloxy)-6-methoxy-2-(5-methyl-2-furyl)-N-(1-methyl-4-piperidyl)quinolin-4-amine; 2,2,2-trifluoroacetic acid]: the GI50 is at most 10000 nM in the test with Hep3B, 1000 to 10000 nM in the test on CEMO-1, at most 10000 nM in the test with HepG2 and at most 10000 nM in the test with PLC/PRF/5. For the same molecule, the IC50 at human G9a enzyme lay within 1000 to 10000 nM; at DNMT1, 100 to 500 nM.

For the molecule `COc1cc2c(NC3CCN(C)CC3)cc(-c3ccc(C)[nH]3)nc2cc1OCC1CCNCC1` [Compound 11-05], the GI50 with Hep3B, in the test on CEMO-1, in the test with HepG2 and with PLC/PRF/5 was at most 10000 nM each time. Further, the IC50 against human G9a enzyme is under 100 nM; against DNMT1, 100 to 500 nM.

`CCc1ccc(-c2cc(NC3CC4(CCNCC4)C3)c3cc(OC)c(OCCCN4CCCC4)cc3n2)o1` [Compound 4-03, N-(7-azaspiro[3.5]nonan-2-yl)-2-(5-ethyl-2-furyl)-6-methoxy-7-(3-pyrrolidin-1-ylpropoxy)quinolin-4-amine:2,2,2-trifluoroacetic acid]: the IC50 against human G9a enzyme and against DNMT1 was under 100 nM throughout. For the same molecule, the GI50 with CEMO-1 was 1000 to 10000 nM.

Take `COc1cc2c(NC3CCN(C)CC3)cc(-c3ccc(C)s3)nc2cc1OCCCN1CCCC1` [Compound 3-36]: the IC50 against human G9a enzyme is under 100 nM; against DNMT1, 500 to 1000 nM. In addition, the GI50 in the test with CEMO-1 fell in the range of 100 to 1000 nM.

For the molecule `COc1cc2c(NC3CC4(CCN(C)CC4)C3)cc(-c3ccc(C)[nH]3)nc2cc1OCCCN1CCCC1` [Compound 5-05, 6-methoxy-N-(7-methyl-7-azaspiro[3.5]nonan-2-yl)-2-(5-methyl-1H-pyrrol-2-yl)-7-(3-pyrrolidin-1-ylpropoxy)quinolin-4-amine; 2,2,2-trifluoroacetic acid], the concentration for half-maximal inhibition (IC50) was under 100 nM against human G9a enzyme and 100 to 500 nM against DNMT1. Moreover, the GI50 with CEMO-1 was 1000 to 10000 nM.

In turn, `COc1cc2c(NC3CCN(C)C(=O)C3)cc(-c3ccc(C)o3)nc2cc1OCCCN1CCCC1` (stereo not drawn) [Compound 3-17] showed a GI50 with OCI-Ly3 of 100 to 1000 nM.

In the case of `COc1cc2c(NCC3CCN(C)CC3)cc(-c3ccc(C)[nH]3)nc2cc1OCCCN1CCCC1` [Compound 3-39], the IC50 on human G9a enzyme and at DNMT1 was under 100 nM throughout. The molecule also registered a GI50 in the test on CEMO-1 of 100 to 1000 nM.

For `COc1cc2c(NC3CCC34CCN(C)CC4)cc(-c3ccc(C)o3)nc2cc1OCCCN1CCCC1` (stereo not drawn) [Compound 5-01, 6-methoxy-N-(7-methyl-7-azaspiro[3.5]nonan-3-yl)-2-(5-methyl-2-furyl)-7-(3-pyrrolidin-1-ylpropoxy)quinolin-4-amine; 2,2,2-trifluoroacetic acid], in the test on OCI-Ly3, the GI50 was 100 to 1000 nM.

Regarding `COc1cc2c(NC3CCCC3)cc(-c3ccc(C)o3)nc2cc1OCCCN1CCCC1` [Compound 3-05], the GI50 with CEMO-1 was in the range of 100 to 1000 nM.

Take `COc1cc2c(NC3CCN(C)C(=O)C3)cc(-c3ccc(C)[nH]3)nc2cc1OCC1CCN(C)CC1` (stereo not drawn) [Compound 12-04]: the half-inhibitory concentration (IC50) on human G9a enzyme fell in the range of 1000 to 10000 nM; against DNMT1 it was 500 to 1000 nM.

For `Cc1ccc(-c2cc(NC3CCN(C)CC3)c3cc(OCC(F)(F)F)c(OCCCN4CCCC4)cc3n2)o1` [Compound 13-01, 2-(5-methyl-2-furyl)-N-(1-methyl-4-piperidyl)-7-(3-pyrrolidin-1-ylpropoxy)-6-(2,2,2-trifluoroethoxy)quinolin-4-amine; 2,2,2-trifluoroacetic acid], the concentration for half-maximal inhibition (IC50) against human G9a enzyme and against DNMT1 was 500 to 1000 nM in each case.

Regarding `COc1cc2c(NCC3CCN(C)CC3)cc(-c3ccc(C)o3)nc2cc1OCC1CCNCC1` [Compound 11-02], the IC50 against human G9a enzyme and against DNMT1 was 100 to 500 nM each time. In addition, the GI50 in the test with CEMO-1 was in the range of 1000 to 10000 nM.

As for `COc1cc2c(NC3CCN(C)CC3)cc(-c3ccc(CO)o3)nc2cc1OCCCN1CCCC1` [Compound 9-01, [5-[6-methoxy-4-[(1-methyl-4-piperidyl)amino]-7-(3-pyrrolidin-1-ylpropoxy)-2-quinolyl]-2-furyl]methanol; 2,2,2-trifluoroacetic acid], the half-inhibitory concentration (IC50) against human G9a enzyme is under 100 nM; against DNMT1 it was 500 to 1000 nM.

As to `CCc1ccc(-c2cc(NC3CC4(CCN(C5CC5)CC4)C3)c3cc(OC)c(OCCCN4CCCC4)cc3n2)o1` [Compound 19-01, N-(7-cyclopropyl-7-azaspiro[3.5]nonan-2-yl)-2-(5-ethyl-2-furyl)-6-methoxy-7-(3-pyrrolidin-1-ylpropoxy)quinolin-4-amine; 2,2,2-trifluoroacetic acid], the IC50 at human G9a enzyme fell in the range of 1000 to 10000 nM; against DNMT1, 500 to 1000 nM.

Take `COc1cc(NC2CCN(C)CC2)c2cc(OC)c(OCCCN3CCCC3)cc2n1` [Compound 2-01]: the IC50 against human G9a enzyme fell in the range of 100 to 500 nM; on DNMT1, 1000 to 10000 nM.

Turning to `COc1cc2c(NC3CCN(C)CC3)cc(N3CCN(C)CC3)nc2cc1OCCCN1CCCC1` [Compound 1-02], the IC50 on human G9a enzyme is under 100 nM; against DNMT1, 500 to 1000 nM.

On to `COc1cc2c(NC3CCCC3)cc(-c3ccc(C)[nH]3)nc2cc1OCCCN1CCCC1` [Compound 3-38], for which the IC50 against human G9a enzyme is under 100 nM; on DNMT1, 100 to 500 nM.

For the molecule `COc1cc2c(NC3CCN(C)CC3)cc(C3CCOCC3)nc2cc1OCCCN1CCCC1` [Compound 7-02, 6-methoxy-N-(1-methyl-4-piperidyl)-7-(3-pyrrolidin-1-ylpropoxy)-2-tetrahydropyran-4-yl-quinolin-4-amine; 2,2,2-trifluoroacetic acid], the half-inhibitory concentration (IC50) against human G9a enzyme is under 100 nM; at DNMT1, 1000 to 10000 nM.

Consider `COCCNc1cc(-c2ccc(C)o2)nc2cc(OCCCN3CCCC3)c(OC)cc12` [Compound 3-12], for which the IC50 on human G9a enzyme was 100 to 500 nM; at DNMT1, 1000 to 10000 nM.
